Assay results as given in US12195427B2, “MASP-2 inhibitors and methods of use” (priority 2018, dated 2025).

Legend:
MASP-2 CCP2-SP = MASP-2 CCP2-SP (Homo sapiens (Human), UniProt O00187); assay: MASP-2 co-crystallization, X-ray crystallography and structure analysis (H-bonds, van der Waals contacts); design: van der Waals contact distance, MASP-2 HIS 483 atom CD2 / van der Waals contact distance, MASP-2 HIS 483 atom NE2 / van der Waals contact distance, SER 654 C to compound atom / van der Waals contact distance, SER 654 O to compound atom / van der Waals contact distance, TRP 655 C to compound atom / van der Waals contact distance, MASP-2 GLY 528 atom CA / van der Waals contact distance TRP 655 atom CZ3 / van der Waals contact distance TRP 655 atom N / van der Waals contact distance TRP 655 atom CE3 / van der Waals contact distance GLY 656 atom C / van der Waals contact distance GLY 656 atom CA / van der Waals contact distance GLY 656 atom O / van der Waals contact distance, MASP-2 TYR 607 atom CD1 / van der Waals contact distance, MASP-2 PRO 606 atom O / d(C3,CA1) / d(CA1,N1)2 / d(H4,O1) / d(H4,O2) / d(O1,O2) / d(CA1,O2) / d(CA6,O1) / d(CA6,O2) / d(CA1,C5) / d(O2,H3) / d(N2,C2) / d(CA5,N2) / d(N2,C4) / d(N2,C6) / d(N2,CA3) / d(N2,O3) / d(O4,H2): unit not given beside the values;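 on Ligand-pharmacophore element distance, pharmacophore element C2: distance from averaged pharmacophore element to bound ligand; missing value means element absent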;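 on Ligand-pharmacophore element distance, pharmacophore element C3: distance from averaged pharmacophore element to bound ligand; missing value means element absent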;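 on Ligand-pharmacophore element distance, pharmacophore element C4: distance from averaged pharmacophore element to bound ligand; missing value means element absent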;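 on Ligand-pharmacophore element distance, pharmacophore element C5: distance from averaged pharmacophore element to bound ligand; missing value means element absent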
In short: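 Human MASP-2 CCP2-SP (± 6His) expressed in E. coli and crystallized; crystals soaked in crystallization solution containing inhibitor, cryoprotected with 20% glycerol or frozen directly. Synchrotron data at 1.0 wavelength; molecular replacement from 1Q3X, partial refinement; one ligand pose analyzed; LigPlot+ contacts may include H-bonds.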

Lectin Pathway = Lectin Pathway Activation Assay in Human Serum (mannan-coated ELISA, C3c detection); format: biochemical; details: 1% human serum
Protocol: Microtiter ELISA plate was coated with mannan from Saccharomyces cerevisiae (Sigma-Aldrich, M7504) for overnight at 4° C. in coating buffer [15 mM Na2CO3, 35 mM NaHCO3].

[1] = Table A5-1 pharmacophore: distance between elements, S2/S1 region
[2] = Table A5-2 pharmacophore distance, S3/S4 region
[3] = Table A7-1, between pharmacophore elements of the bound compound

MASP-2 CCP2-SP, sequence (O00187 445-686): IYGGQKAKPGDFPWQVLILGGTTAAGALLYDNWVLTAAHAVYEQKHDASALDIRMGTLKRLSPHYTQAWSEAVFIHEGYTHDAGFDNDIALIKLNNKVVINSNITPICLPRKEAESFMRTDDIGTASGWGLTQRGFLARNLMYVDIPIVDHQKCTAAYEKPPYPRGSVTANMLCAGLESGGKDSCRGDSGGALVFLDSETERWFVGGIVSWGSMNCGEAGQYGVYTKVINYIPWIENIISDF
MASP-2 CCP2-SP, sequence (O00187 364-432 partner): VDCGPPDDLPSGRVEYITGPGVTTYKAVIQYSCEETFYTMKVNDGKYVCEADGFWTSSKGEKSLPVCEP

SMILES: Cc1cc(Cl)cc(CNC(=O)[C@H](C)NC(=O)[C@H]2C[C@H](Cc3ccccc3)CN2)c1O [compound 1307, (2R,4S)-4-Benzyl-N—((S)-1-((5-chloro-2-hydroxy-3-methylbenzyl)amino)-1-oxopropan-2-yl)pyrrolidine-2-carboxamide]
- H-bond distance to MASP-2 GLY 656 atom N (MASP-2 CCP2-SP; Table A1 (H-Bonds), GLY 656 N): 2.95
- H-bond distance to MASP-2 GLY 656 atom O (MASP-2 CCP2-SP; Table A1 (H-Bonds), GLY 656 O): 2.86
- H-bond distance to MASP-2 SER 654 atom O (MASP-2 CCP2-SP; Table A1 (H-Bonds), SER 654 O): 2.91
- van der Waals contact distance, MASP-2 HIS 483 atom NE2 (MASP-2 CCP2-SP; Table A2-1): 3.5
- van der Waals contact distance, MASP-2 GLY 528 atom CA (MASP-2 CCP2-SP; Table A2-2): 3.75
- van der Waals contact distance, MASP-2 PHE 529 atom CD2 (MASP-2 CCP2-SP; Table A2-3): 3.69
- van der Waals contact distance, MASP-2 PHE 529 atom CZ (MASP-2 CCP2-SP; Table A2-3): 3.86
- van der Waals contact distance, MASP-2 TYR 607 atom CD1 (MASP-2 CCP2-SP; Table A2-4): 3.83
- van der Waals contact distance, SER 654 C to compound atom (MASP-2 CCP2-SP; Table A2-11): 3.79
- van der Waals contact distance, VAL 653 CG1 to compound atom (MASP-2 CCP2-SP; Table A2-11): 3.47
- van der Waals contact distance TRP 655 atom CE3 (MASP-2 CCP2-SP; Table A2-13, MASP-2 TRP 655 CE3, compound atom in line below): 3.75
- van der Waals contact distance TRP 655 atom CZ3 (MASP-2 CCP2-SP; Table A2-13, MASP-2 TRP 655 CZ3): 3.76
- Ligand-pharmacophore element distance, pharmacophore element C2 (MASP-2 CCP2-SP; Table A4-1, element C2): 0
- Ligand-pharmacophore element distance, pharmacophore element C3 (MASP-2 CCP2-SP; Table A4-1, element C3): 0
- Ligand-pharmacophore element distance, pharmacophore element C4 (MASP-2 CCP2-SP; Table A4-1, element C4): 0
- Ligand-pharmacophore element distance, pharmacophore element C5 (MASP-2 CCP2-SP; Table A4-1, element C5): 0.37
- Ligand-pharmacophore element distance, pharmacophore element C6 (MASP-2 CCP2-SP; Table A4-1, element C6): 0
- Ligand-pharmacophore element distance, pharmacophore element C7 (MASP-2 CCP2-SP; Table A4-1, element C7): 0.76
- Ligand-pharmacophore element distance, pharmacophore element CA1 (MASP-2 CCP2-SP; Table A4-1, element CA1): 1.55
- Ligand-pharmacophore element distance, pharmacophore element CA2 (MASP-2 CCP2-SP; Table A4-1, element CA2): 0.17
- Ligand-pharmacophore element distance, pharmacophore element CA3 (MASP-2 CCP2-SP; Table A4-1, element CA3): 0
- Ligand-pharmacophore element distance, pharmacophore element CA4 (MASP-2 CCP2-SP; Table A4-1, element CA4): 0
- Ligand-pharmacophore element distance, pharmacophore element CA5 (MASP-2 CCP2-SP; Table A4-1, element CA5): 0
- Ligand-pharmacophore element distance, pharmacophore element CA6 (MASP-2 CCP2-SP; Table A4-1, element CA6): 0
- d(CA1,C5) (MASP-2 CCP2-SP; [1]): 3.13
- d(CA1,O1) (MASP-2 CCP2-SP; [1]): 4.60
- d(CA1,O2) (MASP-2 CCP2-SP; [1]): 4.57
- d(CA1,O4) (MASP-2 CCP2-SP; [1]): 2.74
- d(H4,O1) (MASP-2 CCP2-SP; [1]): 3.15
- d(H4,O2) (MASP-2 CCP2-SP; [1]): 3.80
- d(O1,O2) (MASP-2 CCP2-SP; [1]): 3.17
- d(O4,H2) (MASP-2 CCP2-SP; [1]): 0.98
- d(N2,CA2) (MASP-2 CCP2-SP; [2]): 6.14
- d(O2,H3) (MASP-2 CCP2-SP; [2]): 2.09
- d(O2,N2) (MASP-2 CCP2-SP; [2]): 2.81
- a(C5, CA1, O1) (MASP-2 CCP2-SP; Table A6-1 pharmacophore angle): 161.35
- a(CA1, O1, O2) (MASP-2 CCP2-SP; Table A6-1 pharmacophore angle): 109.57
- a(CA1, O4, H2) (MASP-2 CCP2-SP; Table A6-1 pharmacophore angle): 127.11
- a(O1, CA1, C7) (MASP-2 CCP2-SP; Table A6-1 pharmacophore angle): 121.00
- a(O1, CA1, O4) (MASP-2 CCP2-SP; Table A6-1 pharmacophore angle): 66.49
- a(O1, O2, H4) (MASP-2 CCP2-SP; Table A6-1 pharmacophore angle): 126.83
- a(O1, O2, H3) (MASP-2 CCP2-SP; Table A6-2 pharmacophore angle): 129.22
- a(O1, O2, N2) (MASP-2 CCP2-SP; Table A6-2 pharmacophore angle): 142.81
- a(O2, N2, CA2) (MASP-2 CCP2-SP; Table A6-2 pharmacophore angle): 155.37
- Pharmacophore torsion angle a(C5, CA1, O1, H4) (MASP-2 CCP2-SP; [3]): −6.78
- Pharmacophore torsion angle a(C7, CA1, O1, H4) (MASP-2 CCP2-SP; [3]): −161.01
- Pharmacophore torsion angle a(H4, O1, O2, H3) (MASP-2 CCP2-SP; [3]): −163.22
- Pharmacophore torsion angle a(H4, O1, O2, N2) (MASP-2 CCP2-SP; [3]): −170.13
- Pharmacophore torsion angle a(O1, H4, O2, CA1) (MASP-2 CCP2-SP; [3]): −88.47
- Pharmacophore torsion angle a(O1, O2, N2, CA2) (MASP-2 CCP2-SP; Table A7-2, between pharmacophore elements of the bound compound): 138.35
- IC50 (Lectin Pathway): 50 to 500 nM
